Experimental data reported in US6861390B2, “Derivatives of UK-2A” (priority 2001, dated 2005).

Legend:
[1] = test system: Leptosphaeria nodorum (LEPTNO); experiment: Glume Blotch of Wheat, whole plant 24 Hour Protectant (T2); conditions: Parastagonospora nodorum; wheat (cultivar Yuma), sprayed at 100 ppm, inoculated after 24 hours; read-out: T2 LEPTNO in vivo 1 Day Protectant, control of fungal infection
[2] = test system: Phytophthora infestans (PHYTIN); experiment: whole plant or invertebrate; conditions: in Solanum lycopersicum, 24 h, read-out: T3 PHYTIN in vivo 1 Day Protectant, control of fungal infection
[3] = test system: Puccinia recondita (PUCCRT); experiment: Brown Rust of Wheat, whole plant 24 Hour Protectant (T5); conditions: wheat (cultivar Yuma), sprayed at 100 ppm, inoculated after 24 hours, read-out: T5 PUCCRT in vivo 1 Day Protectant, control of fungal infection
[4] = test system: Septoria tritici (SEPTTR); experiment: Leaf Blotch of Wheat, whole plant 24 Hour Protectant (T6); conditions: Zymoseptoria tritici; wheat (cultivar Monon), sprayed at 100 ppm, inoculated after 24 hours; read-out: T6 SEPTTR in vivo 1 Day Protectant, control of fungal infection
[5] = test system: Stagonospora nodorum (Leptosphaeria nodorum, LEPTNO); experiment: microbe, parasite or virus in culture; type: cell-based; conditions: Parastagonospora nodorum, read-out: T7 LEPTNO in vitro Growth Inhibition
[6] = test system: Phytophthora infestans (PHYTIN); experiment: microbe, parasite or virus in culture; type: cell-based; conditions: in Secale cereale, read-out: T8 PHYTIN in vitro Growth Inhibition
[7] = test system: Magnaporthe grisea (Pyricularia oryzae, PYRIOR); experiment: microbe, parasite or virus in culture; type: cell-based; conditions: read-out: T9 PYRIOR in vitro Growth Inhibition
[8] = test system: Rhizoctonia solani (RHIZSO); experiment: microbe, parasite or virus in culture; type: cell-based; conditions: read-out: T10 RHIZSO in vitro Growth Inhibition
[9] = test system: Mycosphaerella graminicola (Septoria tritici, SEPTTR); experiment: microbe, parasite or virus in culture; type: cell-based; conditions: Zymoseptoria tritici, read-out: T11 SEPTTR in vitro Growth Inhibition
Ustilago maydis (USTIMA) = experiment: microbe, parasite or virus in culture; type: cell-based; conditions: Mycosarcoma maydis, read-out: T12 USTIMA in vitro Growth Inhibition
[10] = test system: Erysiphe graminis (ERYSGT); experiment: Powdery Mildew of Wheat, whole plant 24 Hour Protectant (T1); conditions: Blumeria graminis, in Triticum aestivum, read-out: T1 ERYSGT in vivo 1 Day Protectant, control of fungal infection

Structure (SMILES) | pest or weed control at 100 ppm [1] | pest or weed control at 100 ppm [2] | pest or weed control at 100 ppm [3] | pest or weed control at 100 ppm [4] | inhibition at 25 ppm [5] | inhibition at 25 ppm [6] | inhibition at 25 ppm [7] | inhibition at 25 ppm [8] | inhibition at 25 ppm [9] | inhibition at 25 ppm (Ustilago maydis (USTIMA)) | pest or weed control at 100 ppm [10]
COc1ccnc(C(=O)N[C@H]2COC(=O)[C@H](Cc3ccccc3)[C@@H](OC(=O)C(C)C)[C@H](C)OC2=O)c1OCOCCOC(C)=O [Compound 17] | 75 to 100% | < 25% | 75 to 100% | 75 to 100% | > 80% | < 80% | < 80% | > 80% | > 80% | < 80% | < 25%
CCC(=O)OCOc1c(OC)ccnc1C(=O)N[C@H]1COC(=O)[C@H](Cc2ccccc2)[C@@H](OC(=O)C(C)C)[C@H](C)OC1=O [Compound 21] | 75 to 100% | < 25% | 75 to 100% | 75 to 100% | > 80% | < 80% | > 80% | < 80% | > 80% | < 80% | 25 to 74%
COCC(=O)OCOc1c(OC)ccnc1C(=O)N[C@H]1COC(=O)[C@H](Cc2ccccc2)[C@@H](OC(=O)C(C)C)[C@H](C)OC1=O [Compound 30] | 75 to 100% | < 25% | 75 to 100% | 75 to 100% | > 80% | < 80% | > 80% | > 80% | < 80% | > 80% | 75 to 100%
COC(=O)CCC(=O)OCOc1c(OC)ccnc1C(=O)N[C@H]1COC(=O)[C@H](Cc2ccccc2)[C@@H](OC(=O)C(C)C)[C@H](C)OC1=O [Compound 32] | 75 to 100% | < 25% | 75 to 100% | 75 to 100% | > 80% | < 80% | > 80% | < 80% | < 80% | < 80% | 25 to 74%
COc1ccnc(C(=O)N[C@H]2COC(=O)[C@H](Cc3ccccc3)[C@@H](OC(=O)C(C)C)[C@H](C)OC2=O)c1OCOC(=O)C1CCCO1 (stereo partly shown) [Compound 34] | 75 to 100% | < 25% | 75 to 100% | 75 to 100% | > 80% | < 80% | < 80% | < 80% | < 80% | < 80% | 25 to 74%
CCCOCC(=O)OCOc1c(OC)ccnc1C(=O)N[C@H]1COC(=O)[C@H](Cc2ccccc2)[C@@H](OC(=O)C(C)C)[C@H](C)OC1=O [Compound 35] | 75 to 100% | < 25% | 75 to 100% | 75 to 100% | > 80% | < 80% | > 80% | > 80% | > 80% | < 80% | 25 to 74%
COc1ccnc(C(=O)N[C@H]2COC(=O)[C@H](Cc3ccccc3)[C@@H](OC(=O)C(C)C)[C@H](C)OC2=O)c1OCOC(=O)COC(C)C [Compound 36] | 75 to 100% | < 25% | 75 to 100% | 75 to 100% | > 80% | < 80% | > 80% | < 80% | > 80% | < 80% | < 25%
CCCCOCC(=O)OCOc1c(OC)ccnc1C(=O)N[C@H]1COC(=O)[C@H](Cc2ccccc2)[C@@H](OC(=O)C(C)C)[C@H](C)OC1=O [Compound 37] | 75 to 100% | < 25% | 75 to 100% | 75 to 100% | > 80% | < 80% | > 80% | < 80% | > 80% | > 80% | 25 to 74%
COc1ccnc(C(=O)N[C@H]2COC(=O)[C@H](Cc3ccccc3)[C@@H](OC(=O)C(C)C)[C@H](C)OC2=O)c1OCOC(=O)COCC(C)C [Compound 38] | 75 to 100% | < 25% | 75 to 100% | 75 to 100% | > 80% | < 80% | > 80% | < 80% | > 80% | < 80% | 25 to 74%
CCC(C)OCC(=O)OCOc1c(OC)ccnc1C(=O)N[C@H]1COC(=O)[C@H](Cc2ccccc2)[C@@H](OC(=O)C(C)C)[C@H](C)OC1=O (stereo partly shown) [Compound 39] | 75 to 100% | < 25% | 75 to 100% | 75 to 100% | > 80% | < 80% | > 80% | < 80% | > 80% | < 80% | 25 to 74%
COCCOCC(=O)OCOc1c(OC)ccnc1C(=O)N[C@H]1COC(=O)[C@H](Cc2ccccc2)[C@@H](OC(=O)C(C)C)[C@H](C)OC1=O [Compound 40] | 75 to 100% | < 25% | 75 to 100% | 75 to 100% | > 80% | < 80% | > 80% | > 80% | > 80% | > 80% | 25 to 74%
COc1ccnc(C(=O)N[C@H]2COC(=O)[C@H](Cc3ccccc3)[C@@H](OC(=O)C(C)C)[C@H](C)OC2=O)c1OCOC(=O)COC1CCCC1 [Compound 41] | 75 to 100% | < 25% | 75 to 100% | 75 to 100% | > 80% | < 80% | > 80% | < 80% | > 80% | > 80% | 25 to 74%
COc1ccnc(C(=O)N[C@H]2COC(=O)[C@H](Cc3ccccc3)[C@@H](OC(=O)C(C)C)[C@H](C)OC2=O)c1OCOC(=O)COc1ccccc1 [Compound 42] | 75 to 100% | < 25% | 75 to 100% | < 25% | > 80% | < 80% | > 80% | < 80% | > 80% | < 80% | < 25%
COc1ccnc(C(=O)N[C@H]2COC(=O)[C@H](Cc3ccccc3)[C@@H](OC(=O)C(C)C)[C@H](C)OC2=O)c1OC1OC(=O)c2ccccc21 (stereo partly shown) [Compound 43] | 75 to 100% | < 25% | 75 to 100% | 75 to 100% | > 80% | < 80% | < 80% | < 80% | > 80% | < 80% | 25 to 74%
